Test results as given in patent publication US9089548B2, “Composition for protection against cell-damaging effects” (TIMA FOUNDATION, priority 2011, dated 2015).

Experiments:
[1] = tested on: hydrogen peroxide in the blood of mice; assay: Hydrogen peroxide concentration in blood of 6 Gy irradiated mice (d-ROMs test); type: in vivo, C57BL/6 mice; settings: Example 7; for Hydrogen peroxide concentration: three times in 24 h interval before 6 Gy, blood 72 h after irradiation
Protocol: For the following experiments C57BL/6 mice (21 gram body weight) were purchased from Japan SLC (Shizuoka, Japan). The mice were used for the experiments with an age of 8 weeks.
In this Experiment Six Groups were Built, Wherein Each Group Comprises 6 Mice: • a) the first group of mice were not treated and built the negative control, • b) the second group of mice built the positive control, thus the mice were treated with 6 Gy radiation and 72 hours after irradiation blood sampling was performed, • c) the third group of mice was treated with 150 mg Vitamin C per kg body weight, • d) the forth group of mice was treated with 15 mg Vitamin C per kg body weight, and • e) the fifth group of mice was treated with 15 mg of the composition in Example 6 per kg body weight.
The following experiment was performed for the first, second and fifth group in three independent experiments, for the third group in two independent experiments and for the forth group in one experiment.
Each mouse was placed in a well-ventilated acrylic container. The composition in Example 6 and Vitamin C, respectively suspended in 0.5 ml water was orally administered three times in a 24 hours interval to the mice of the third to fifth group. 24 hours after the third administration mice were exposed to 6 Gy whole body irradiation (WBI), given at a dose rate of 0.45 Gy/min at 150 kV and 5 mA (HITACHI MBR-1505R2, Tokyo, Japan). The beam was filtered through a 2 mm aluminum board. 72 hours after irradiation blood sampling was performed.
The d-ROMs (Reactive Oxygen Metabolites) test by using Free Carpe Diem photometric analytical system (Diacron, Grosseto, Italy) was used for the measurement of free radical metabolites in the blood samples of the mice. It is a spectrophotometric method that assesses overall oxidative stress by measuring total hydroperoxide levels, given that hydroperoxides are intermediate oxidative products of lipids, peptides, and amino acids. Briefly, 0.02 ml plasma was diluted in 1 ml acetate-buffered solution. Hydroperoxide groups react with the transition metal ions liberated from the proteins in the acidic medium, and are converted to alkoxyl and peroxyl radicals according to the Fenton reaction. These newly formed radicals, the quantities of which are directly proportional to those of the peroxides, were trapped chemically with 0.02 ml chromogen (N, N-diethyl-para-phenylendiamine), leading to the formation of the radical cation of this chromogen. The purple color resulting from this reaction over time was monitored in a spectrophotometer (Wismarll FRAS4, Tokyo, Japan) at 505 nm. The results of this method were expressed in μmol per liter. […]
c) the fifth group of mice, comprising 12 mice, was treated with 15 mg of a composition similar to that of Example 8 containing cysteine instead of cystine per kg body weight by oral administration, and
d) the sixth group of mice, comprising 12 mice, was treated with 15 mg of the composition according to Example 8 per kg body weight by intra-peritoneal administration.
Each mouse was placed in a well-ventilated acrylic container. The mice representing the positive control were exposed to 6 Gy whole body irradiation (WBI), given at a dose rate of 0.45 Gy/min at 150 kV and 5 mA (HITACHI MBR-1505R2, Tokyo, Japan). The beam was filtered through a 2 mm aluminum board. 72 hours after irradiation blood sampling was performed.
The composition in Example 8 was orally administered three times in a 24 hours interval to the mice of the second group in the concentration of 15 mg composition per kg body weight, i.e. the mice were pre-treated 3 days with the composition of Example 8 before irradiation. 24 hours after the third administration mice were irradiated using conditions as for positive control. 72 hours after irradiation blood sampling was performed. […]

hen's egg white lysozyme = assay: Activity test of lysozyme X-irradiated in the presence of additives added before irradiation (a.r.); type: biochemical; settings: X (1000 Gy); a.r. additive 10 mM; lysozyme 0.1 mg/ml; unirradiated lysozyme = 100%
Protocol: The hen's egg white lysozyme was purchased from Serva (Heidelberg, Germany), additives and all other substances were of the highest available grade. Lysozyme (0.1 mg/ml) and the additives (10 mM, except otherwise stated) were dissolved in dilute, air-saturated 1 mM sodium phosphate buffer pH 6.5 and were irradiated at 25° C. with X-rays (0-1 kGy) in the absence or presence of the additives. Activity tests of the lysozyme were performed as described in Shugar, 1952. The measurement of lysozyme activity and the ultra-violet inactivation of lysozyme. Biochim. Biophys. Acta 8, 302-309. were recorded in a Jasco UV/VIS spectrophotometer V-530. The activity test of lysozyme is simple and straightforward. The method described by Shugar uses the diluted unirradiated or irradiated enzyme and a cell suspension of Micrococcus lysodeikticus in a special activity buffer (66 mM sodium phosphate buffer with 17 mM NaCl, pH 7.0). The bacterium is suspended in an Erlenmeyer flask in the activity buffer at a concentration of 0.2 mg/ml. Before using the bacterial suspension in the test, the flask has to be swivelled to ensure homogeneous pipetting into the cuvette. Working briskly, the enzyme sample was pipetted to the bacterial solution, and using parafilm to tightly seal the cuvette, was homogeneously hand-mixed. Typical test mixtures (total of 3 ml) consisted of 2.98 ml bacterial solution plus 0.02 ml unirradiated enzyme sample in the absence or presence of additives, and 2.95 ml bacterial solution plus 0.05 ml irradiated enzyme (250 Gy) in the absence of additives, and 2.6 ml bacterial solution plus 0.4 ml irradiated enzyme (1000 Gy) in the absence of additives, to allow reasonable handling of the samples. The decrease in absorbance resulting from a breakdown of the bacteria by the enzyme is measured in a 3-ml cuvette in a spectrophotometer at a wavelength of 450 nm for a continuous time period of 3 min at 25° C. Different decreases in absorbance reflect different activities. The test may also be applied for lysozyme in the presence of antioxidants, since, owing to the high dilution of the samples (lysozyme+antioxidants) in the test and the wavelength used, the antioxidants will not disturb the results of the activity measurement. No further separation techniques are needed. Irradiations were performed in small 2-ml plastic cups at 25° C. The dosage measurement of X-rays was obtained by Fricke dosimetry (ferrous sulfate dosimetry). […] Afterwards the irradiated lysozyme was used in the activity assay as described in example 2 to determine the activity of the lysozyme. For comparison, activities are given in percent. The native, unirradiated lysozyme is used as reference and is considered to have 100% activity. […]

Compound | Difference (increase vs positive control) ([1]; 15 mg/kg oral, three times before 6 Gy, positive control 144.7) | Increase rate ([1]; 15 mg/kg oral, three times before 6 Gy, relative to radiation-induced increase 19.7 μmol/l, listed as Vitamin C, 15 mg/kg) | Hydrogen peroxide concentration ([1]; 15 mg/kg oral) | Difference (decrease vs positive control) ([1]; 150 mg/kg oral, three times before 6 Gy, positive control 144.7) | Reduction rate ([1]; 150 mg/kg oral, three times before 6 Gy, relative to radiation-induced increase 19.7 μmol/l, listed as Vitamin C, 150 mg/kg) | Hydrogen peroxide concentration ([1]; 150 mg/kg oral) | % Activity (hen's egg white lysozyme)
O=C1O[C@H]([C@@H](O)CO)C(O)=C1O [Ascorbic acid] | 5.1 µmol/L | 25.89% | 149.6 µmol/L | 3.8 µmol/L | 19.29% | 140.5 µmol/L | 90%
N[C@@H](CCC(=O)N[C@@H](CS)C(=O)NCC(=O)O)C(=O)O [Glutathione, glutathione] |  |  |  |  |  |  | 58%
OC[C@@H](O)[C@@H](O)[C@H](O)[C@H](O)CO [Mannitol, mannitol] |  |  |  |  |  |  | 51%
O=C[O-].[Na+] [Sodium-Formate, sodium-formate] |  |  |  |  |  |  | 75%
